Molecular target: PDIA1 (Homo sapiens, UniProt P07237)
Test: PDIA1 activity assay, di-E-GSSG reduction (fluorescence)
Type: biochemical
Design: His6 (6xHN, pET6xHN-N vector) (N); made in house; host or cells: Escherichia coli BL21 (DE3) NiCo
Details: di-EGGS assay; read-out: inactivation constant, Kinact for PDIA1
Protocol: PDI activity: All PDI activity assays were performed using two different substrates, insulin and di-eosin-diglutathione (di-E-GSSG) as described earlier (Vatolin et al., Ibid) with brief modifications. PDIA1 (1 μM) was incubated for 1 h with varying concentrations of PDIA1 inhibitors 642 or 642-34 (0.1, 03, 1, 5, 10, or 20 μM) in 100 mM sodium phosphate pH 7.0, 2 mM EDTA, and 1% DMSO. Bovine insulin (100 μM) and DTT (1 mM) were added to initiate the reaction. Kinetic readings were taken every minute for 2 h at 650 nm absorbance using a BioTek Synergy plate reader (BioTek Instruments, Inc., Winooski, VT, USA). For highly sensitive fluorescence-based assays, di-E-GSSG as a pseudo substrate was utilized to access the activity of PDIA1. Raturi, A.; Mutus, B., Free. Radic. Biol. Med., 43, 62-70 (2007) Known concentrations of recombinant PDIA1 were mixed with 10 mM GSH and incubated at 37° C. for 30 min in 150 mM K2HPO4/KH2PO4 (pH 7.1) buffer solution. PDI inhibitor was added into the mixture and incubated for an additional 30 min at 37° C. […] Synergy H1 plate reader (BioTek, WI, USA) was used for kinetic analysis using excitation at 518 nm, emission at 545 nm, reads of 0.1 sec/well every minute at 25° C. for 1 h. Baseline fluorescence was determined from di-E-GSSG reactions without PDI and GSH. […]

Sequence of PDIA1 (P07237 18-508): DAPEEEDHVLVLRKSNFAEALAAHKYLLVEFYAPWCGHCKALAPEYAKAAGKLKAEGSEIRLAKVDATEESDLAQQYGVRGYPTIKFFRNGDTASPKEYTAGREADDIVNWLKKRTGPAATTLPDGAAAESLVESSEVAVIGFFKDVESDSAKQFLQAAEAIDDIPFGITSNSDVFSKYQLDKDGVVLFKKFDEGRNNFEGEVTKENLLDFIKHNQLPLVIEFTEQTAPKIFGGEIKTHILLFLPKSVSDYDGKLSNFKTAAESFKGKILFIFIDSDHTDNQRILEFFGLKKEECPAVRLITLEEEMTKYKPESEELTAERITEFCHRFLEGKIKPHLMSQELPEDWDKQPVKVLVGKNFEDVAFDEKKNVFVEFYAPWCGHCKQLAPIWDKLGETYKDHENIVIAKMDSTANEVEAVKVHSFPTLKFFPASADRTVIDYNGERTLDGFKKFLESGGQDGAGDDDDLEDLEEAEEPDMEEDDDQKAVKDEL

## NC(CC1CNc2ccccc21)C(=O)NCCCOc1ccc(N2C(=O)/C(=C/c3ccc([N+](=O)[O-])s3)SC2=S)cc1 (stereo not shown) [CCF642-34]
  KI (inactivation): 88 ± 2.8 nM

— US12649734B2, “Bioavailable protein disulfide isomerase inhibitors” (THE CLEVELAND CLINIC FOUNDATION, priority 2020, dated 2026)
